Assay results published in PubChem BioAssay (NCI).
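Method: 48-hour compound exposure of cells in 96-well plates, five concentrations, linear interpolation of endpoints. GI50 is the concentration that inhibits growth by half. TGI marks complete inhibition of growth.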 Where a SMILES comes first, the peptide text is derived from it. [ ]: non-standard residue; d: D form. The star is where a group is joined. ξ: configuration not given here. ξF = NC(Cc1ccccc1)C(=O)O; Cbz = O=C(OCc1ccccc1)*; Aib = CC(C)(N)C(=O)O

Columns and labels:
Assay in all cases: DTP human tumour cell line panel, 48 h
OVCAR-5 ovarian = system: OVCAR-5 ovarian
MDA-MB-231 breast = system: MDA-MB-231 breast
LOX IMVI melanoma = system: LOX IMVI melanoma
UACC-62 melanoma = system: UACC-62 melanoma
HL-60(TB) leukemia = system: HL-60(TB) leukemia
HCC-2998 colon = system: HCC-2998 colon
UO-31 renal = system: UO-31 renal
SK-MEL-2 melanoma = system: SK-MEL-2 melanoma

Row | Compound | TGI (OVCAR-5 ovarian) [µM] | TGI (MDA-MB-231 breast) [µM] | TGI (LOX IMVI melanoma) [µM] | TGI (UACC-62 melanoma) [µM] | TGI (HL-60(TB) leukemia) [µM] | TGI (HCC-2998 colon) [µM] | TGI (UO-31 renal) [µM] | TGI (SK-MEL-2 melanoma) [µM] | GI50 (OVCAR-5 ovarian) [µM] | GI50 (LOX IMVI melanoma) [µM] | GI50 (SK-MEL-2 melanoma) [µM] | GI50 (HL-60(TB) leukemia) [µM] | GI50 (HCC-2998 colon) [µM] | GI50 (UO-31 renal) [µM]
1 | CC(=O)NCCCCNCCCNC(C)=O | > 100 | > 100 | > 100 | > 100 | > 100 | > 100 | > 100 |  |  |  |  |  |  | 
2 | CCNC(=O)Nc1cccc(C)n1 | > 100 | > 100 |  | > 100 | > 100 | > 100 | > 100 |  |  |  |  |  |  | 
3 | CN(C)c1ccc(/C=N/Nc2nc3ccccc3c(=O)n2-c2ccccc2)cc1 | > 100 | > 100 | > 100 | 93.6 | > 100 | > 100 | > 100 |  |  |  |  |  |  | 
4 | S=C1c2ccccc2NC(=NC2CCCC2)C2CSCN12 (stereo not given) | > 100 | > 100 | > 100 | > 100 |  | > 100 | > 100 | > 100 |  |  |  |  |  | 
5 | COc1ccc(N2C=Nn3c(nc4sc(C)c(C)c4c3=O)C2)cc1 | > 100 | > 100 | > 100 | > 100 |  | > 100 | > 100 | > 100 |  |  |  |  |  | 
6 | CCOC(=O)/C(=C\NCC(O)c1ccccc1)c1nc2ccccc2[nH]1 (stereo not given) | 83.8 |  | 37.7 | 34.8 | 37.1 | 42.2 | 94.4 |  |  |  |  |  |  | 
7 | CSc1nc(NC2CCCC2)c2cc[nH]c2n1 |  | > 100 | > 100 | > 100 | 47.4 | > 100 | > 100 |  |  |  |  |  |  | 
8 | Cc1cnoc1NC1=CC(=O)C(=O)c2ccccc21 | 55.9 | > 100 | > 100 | 29.9 |  |  | 74.6 | 10.5 |  |  |  |  |  | 
9 | Brc1ccc(N=NN2CCCCC2)cc1 | > 100 | > 100 | > 100 | > 100 |  |  | > 100 | 45.4 |  |  |  |  |  | 
10 | O=C(CSc1nc2ccccc2[nH]1)Nc1ccc(-c2nc3ccccc3s2)c(Cl)c1 | 13.6 |  | > 100 |  | > 100 | 9.4 | 13.7 | > 100 | 3.63 | 4.95 | 7.44 | > 100 | 2.77 | 2.16
11 | CN(C)C(=S)N/N=C\C=N/NC(=S)N(C)C | > 100 | > 100 | > 100 | 22 |  | > 100 | > 100 | > 100 |  |  |  |  |  | 
12 | Cc1ccc2c(=O)cc(-c3csc4ccccc34)[nH]c2n1 | 6.47 | 0.0836 | > 100 | > 76.8 | 0.0258 |  | 2.14 |  |  |  |  |  |  | 
13 | C=CC(=O)N1C/C(=C\c2ccc(N(C)C)cc2)C(=O)/C(=C/c2ccc(N(C)C)cc2)C1 | > 100 | > 100 | > 100 | > 100 |  | > 100 | > 100 | > 100 |  |  |  |  |  | 
14 | CC(C)CCCC(C)[C@H]1CCC2[C@@H]3CCC4Cc5nc6c(nc5C[C@]4(C)C3CC[C@@]21C)CC1CC[C@@H]2C(C[C@@H](O)[C@@]3(C)C2C[C@@H]2OC4(CCC(C)CO4)C(C)[C@@H]23)[C@@]1(C)C6 (stereo not given in full) | > 100 | > 100 |  | > 100 | > 100 | > 100 |  |  |  |  |  |  |  | 
15 | CC(=O)Oc1ccc(/C=C/C(=O)O[C@@H](C)[C@H](C)OC(=O)/C=C/c2ccc(OC(C)=O)c(OC(C)=O)c2)cc1OC(C)=O | 58.8 | > 100 | 29 | 33.8 |  | 50.4 | > 100 | > 100 |  |  |  |  |  | 
16 | C=CCC(C)C12CCNC(Cc3ccc(O)cc31)C2C (stereo not given) | > 100 | > 100 | > 100 | > 100 |  | > 100 | > 100 |  |  |  |  |  |  | 
17 | CC(=O)OC[C@H]1O[C@@H](O[C@H]2[C@H](OC(C)=O)C=CO[C@@H]2COC(C)=O)C(OC(C)=O)[C@H]2OC(C)(C)O[C@H]21 (stereo not given in full) | > 100 | > 100 | > 100 | > 100 |  | > 100 | > 100 |  |  |  |  |  |  | 
18 | N#CC1=C2Sc3ccccc3N2[C@H](c2ccccc2)[C@H]2COC(=O)[C@@H]12 | > 100 | > 100 | 91.6 | > 100 |  | > 100 | > 100 | > 100 |  |  |  |  |  | 
19 | Cc1ccc(C)n2c1nc1ccc3ccccc3c12 | > 100 |  |  | > 100 | > 100 | > 100 | > 100 |  |  |  |  |  |  | 
20 | COc1ccc(N(C(=O)Nc2ccc(Cl)c(Cl)c2)c2ccccc2)cc1 | > 10 | > 10 | > 10 | > 10 | > 10 | > 10 | > 10 |  |  |  |  |  |  | 
21 | OC(C1CCC=NN1C(O)(C(F)(F)F)C(F)(F)F)(C(F)(F)F)C(F)(F)F (stereo not given) | > 10 | > 10 | > 10 | > 10 |  | > 10 |  | > 10 |  |  |  |  |  | 
22 | CC(C)(NC(=O)OCc1ccccc1)C(=O)NC(Cc1ccccc1)C(=O)O (stereo not given) (Cbz-[Aib]-[ξF]-OH) | > 100 | > 100 | > 100 | > 100 |  |  | > 100 | > 100 |  |  |  |  |  | 
